Laboratory results: patent US20160038468A1 (priority 2013, published 2016)
Read-outs that look alike come from different tables or passages of the source.

What was measured:
Type in all cases: cell-based
[1] = tested on: Prevotella timonensis; experiment: Agar dilution MIC (CLSI), Prevotella timonensis vaginal isolates
[2] = tested on: M. curtisii; experiment: Agar dilution MIC (CLSI), M. curtisii vaginal isolates; details: for Number of strains with indicated MIC: 14 samples; for MIC: read-out: Minimal Inhibitory Concentration (MIC)
[3] = tested on: Peptoniphilus harei; experiment: Agar dilution MIC (CLSI), Peptoniphilus harei vaginal isolates; details: for MIC: read-out: Minimal Inhibitory Concentration (MIC)
[4] = tested on: Peptoniphilus lacrimalis; experiment: Agar dilution MIC (CLSI), Peptoniphilus lacrimalis vaginal isolates; details: for Number of strains with indicated MIC: 20 samples; for MIC: read-out: Minimal Inhibitory Concentration (MIC)
[5] = tested on: Mobiluncus spp; experiment: Agar dilution MIC (CLSI), Mobiluncus spp vaginal isolate; details: read-out: Minimal Inhibitory Concentration (MIC)
[6] = Peptoniphilus harei, # tested 23
[7] = Peptoniphilus lacrimalis, # tested 20

CCC[C@@H]1C[C@@H](C(=O)N[C@@H]([C@H]2O[C@H](SC)[C@H](O)[C@@H](O)[C@H]2O)[C@H](C)Cl)N(C)C1 [Clindamycin]
2 (9) μg/ml: Resistant ([3]; number (%) of isolates, # tested 23, resistance: rifaximin >32, metronidazole >32, clindamycin >8 μg/ml)
0.06 µg/mL: MIC ([4]; Peptoniphilus lacrimalis, isolate 601105V 13)
6 (30) μg/ml: Resistant ([4]; number (%) of isolates, # tested 20, resistance: rifaximin >32, metronidazole >32, clindamycin >8 μg/ml)
0.5 µg/mL: MIC ([3]; Peptoniphilus harei, isolate 601248V 23) | MIC ([3]; Peptoniphilus harei, isolate 601302V F1) | MIC ([3]; Peptoniphilus harei, isolate 601374V F) | MIC ([3]; Peptoniphilus harei, isolate 601388V Q) | MIC50 [3, 6]
0.25 µg/mL: MIC ([3]; Peptoniphilus harei, isolate 601203V 8) | MIC ([3]; Peptoniphilus harei, isolate 601293V 21) | MIC ([3]; Peptoniphilus harei, isolate 601355V D) | MIC ([3]; Peptoniphilus harei, isolate 601399V 16) | MIC ([3]; Peptoniphilus harei, isolate 601409V L) | MIC ([3]; Peptoniphilus harei, isolate 601413V 16) | MIC ([3]; Peptoniphilus harei, isolate 601539V 25B) | MIC ([4]; Peptoniphilus lacrimalis, isolate 601255V 12) | MIC ([4]; Peptoniphilus lacrimalis, isolate 601293V 15) | MIC ([4]; Peptoniphilus lacrimalis, isolate 601305V K-1) | MIC ([4]; Peptoniphilus lacrimalis, isolate 601330V H) | MIC ([4]; Peptoniphilus lacrimalis, isolate 601336V 47) | MIC ([4]; Peptoniphilus lacrimalis, isolate 601368V 39) | MIC ([4]; Peptoniphilus lacrimalis, isolate 601375V E) | MIC ([4]; Peptoniphilus lacrimalis, isolate 601388V B) | MIC ([4]; Peptoniphilus lacrimalis, isolate 601401V I) | MIC50 [4, 7]
4 µg/mL: MIC [5]
1 µg/mL: MIC ([3]; Peptoniphilus harei, isolate 601098V Q) | MIC ([3]; Peptoniphilus harei, isolate 601212V 15) | MIC ([3]; Peptoniphilus harei, isolate 601259V 11) | MIC ([3]; Peptoniphilus harei, isolate 601289V C) | MIC ([3]; Peptoniphilus harei, isolate 601326V F) | MIC90 [3, 6]
2: Number of strains with indicated MIC ([3]; MIC >[…], 23 samples)
14 (42) μg/ml: Resistant ([1]; number (%) of isolates, # tested 33, resistance: rifaximin >32, metronidazole >32, clindamycin >8 μg/ml)
64 µg/mL: MIC ([2]; individual isolates recovered from the vagina 2009-2012, one line per isolate (id in c0/c1 of the row))
>128 µg/mL: Minimal Inhibitory Concentration (MIC) ([1]; isolate 301212 10) | Minimal Inhibitory Concentration (MIC) ([1]; isolate 601175 J) | Minimal Inhibitory Concentration (MIC) ([1]; isolate 601214 A) | Minimal Inhibitory Concentration (MIC) ([1]; isolate 601226 C) | Minimal Inhibitory Concentration (MIC) ([1]; isolate 601234 B) | Minimal Inhibitory Concentration (MIC) ([1]; isolate 601293 13) | Minimal Inhibitory Concentration (MIC) ([1]; isolate 601367 E) | Minimal Inhibitory Concentration (MIC) ([1]; isolate 601370 13) | Minimal Inhibitory Concentration (MIC) ([1]; isolate 601401 J) | Minimal Inhibitory Concentration (MIC) ([1]; isolate 601411 S) | Minimal Inhibitory Concentration (MIC) ([1]; isolate 601414 O) | Minimal Inhibitory Concentration (MIC) ([1]; isolate 601422 39) | Minimal Inhibitory Concentration (MIC) ([3]; isolate 426868V D) | Minimal Inhibitory Concentration (MIC) ([4]; isolate 601261V O) | Minimal Inhibitory Concentration (MIC) ([4]; isolate 601296V N)
1: Number of strains with indicated MIC ([2]; MIC 32 μg/ml) | Number of strains with indicated MIC ([2]; MIC >[…]) | Number of strains with indicated MIC ([4]; MIC 0.06 μg/ml) | Number of strains with indicated MIC ([4]; MIC 8 μg/ml)
8 µg/mL: MIC ([4]; Peptoniphilus lacrimalis, isolate 601318V E)
3: Number of strains with indicated MIC ([2]; MIC 0.06 μg/ml) | Number of strains with indicated MIC ([4]; MIC >[…])
14 (70) μg/ml: Susceptible ([4]; number (%) of isolates, # tested 20)
21 (91) μg/ml: Susceptible ([3]; number (%) of isolates, # tested 23)
19 (58) μg/ml: Susceptible ([1]; number (%) of isolates, # tested 33)
> 128 µg/mL: MIC [2] | MIC ([3]; Peptoniphilus harei) | MIC ([4]; Peptoniphilus lacrimalis) | MIC90 [4, 7]
128 µg/mL: MIC ([4]; Peptoniphilus lacrimalis, isolate 601028V 27A) | MIC ([4]; Peptoniphilus lacrimalis, isolate 601139V 17)
0.125 µg/mL: MIC ([3]; Peptoniphilus harei, isolate 601311V R) | MIC ([3]; Peptoniphilus harei, isolate 601342V F) | MIC ([3]; Peptoniphilus harei, isolate 601365V 14) | MIC ([3]; Peptoniphilus harei, isolate 601426V D) | MIC ([3]; Peptoniphilus harei, isolate 601430V 22) | MIC ([4]; Peptoniphilus lacrimalis, isolate 601060V 32A) | MIC ([4]; Peptoniphilus lacrimalis, isolate 601078V O) | MIC ([4]; Peptoniphilus lacrimalis, isolate 601084V c) | MIC ([4]; Peptoniphilus lacrimalis, isolate 601365V 13)
